Patent publication US12448382B2, “Heterocyclic compounds for mediating tyrosine kinase 2 activity” (GUANGZHOU INNOCARE PHARMA TECH CO., LTD., priority 2019, dated 2025)

Columns and labels:
[1] = target: T1, human recombinant JAK2 protein (Homo sapiens, UniProt O60674); experiment: JAK2 Inhibition Assay (HTRF kinase assay); assay type: biochemical; conditions: human recombinant JAK2, 2.5 μM ATP substrate solution
T1 construct: purchased Carna Biosciences 08-045
Method: The effect of the compounds of the present invention on the enzymatic activity of JAK2 was assessed by detecting the substrate phosphorylation level in a kinase reaction using the HTRF kinase assay detection kit (Cisbio, Cat. No. 62TK0PEC).
(§1) The experimental method is generally described below:
A reaction buffer contained the following components: an enzyme reaction buffer (1×), 5 mM MgCl2, 1 mM DTT and 0.01% Brij35 from the kit. A JAK2 kinase solution contained a human recombinant JAK2 protein (Carna Biosciences, 08-045) diluted in the reaction buffer to 0.15 ng/μL. A substrate reaction solution contained 2.5 μM ATP and 0.25 μM of a biotinylated tyrosine kinase substrate from the kit in the reaction buffer. A detection solution contained 0.1 ng/μL Eu^3+-labeled cage antibody (Cisbio, 61T66KLB) and 12.5 nM streptavidin-labeled XL665 (Cisbio, 610SAXLB) in the reaction buffer.
(§2) The test compound was dissolved in DMSO to 10 μM, followed by a serial 4-fold dilution with DMSO to a minimum concentration of 0.061 nM. Each concentration was further diluted 40-fold with the reaction buffer.
To a 384-well assay plate (Corning, 3674) were added 4 μL of compound solution and 2 μL of JAK2 kinase solution. The mixture was mixed and incubated at room temperature for 15 minutes, and then added with 4 μL of the substrate reaction solution. After further incubation at room temperature for 30 minutes, the reaction mixture was added with an equal volume of 10 μL detection solution and allowed to stand at room temperature for 30 minutes. An Envision plate reader (Perkin Elmer) was then used to measure the progress of the reaction at 620 nm and 665 nm. The ratio of absorbances at 665 nm and 620 nm was positively correlated with the degree of substrate phosphorylation, therefore the activity of JAK2 kinase was detected. In the experiment, the group without JAK2 kinase protein was treated as the 100% inhibition group, and the group with JAK2 kinase protein but not the test compound was treated as the 0% inhibition group. The percentage of inhibition on JAK2 kinase activity by the test compound was calculated using the following formula: Percentage of inhibition=100−100*(ratiocompound−ratio100% inhibition)/(ratio0% inhibition−ratio100% inhibition)
The IC50 value of the test compound was calculated from 8 concentration points using the XLfit softwere (ID Business Solutions Ltd., UK) by the following formula: Y=Bottom+(Top−Bottom)/(1+10^((log IC50−X)×slope factor))
Where Y was the percentage of inhibition, X was the logarithm of the concentration of the test compound. Bottom was the bottom plateau value of the S-shaped curve, Top was the top plateau value of the S-shaped curve, and slope factor was the slope coefficient of the curve.

[2] = target: T2, human recombinant TYK2 protein (Homo sapiens, UniProt P29597); experiment: TYK2 Inhibition Assay (HTRF kinase assay); assay type: biochemical; conditions: human recombinant TYK2, 11.25 μM ATP substrate solution
T2 construct: purchased Carna Biosciences 08-147
T2 sequence (P29597 871-1187 limits assumed): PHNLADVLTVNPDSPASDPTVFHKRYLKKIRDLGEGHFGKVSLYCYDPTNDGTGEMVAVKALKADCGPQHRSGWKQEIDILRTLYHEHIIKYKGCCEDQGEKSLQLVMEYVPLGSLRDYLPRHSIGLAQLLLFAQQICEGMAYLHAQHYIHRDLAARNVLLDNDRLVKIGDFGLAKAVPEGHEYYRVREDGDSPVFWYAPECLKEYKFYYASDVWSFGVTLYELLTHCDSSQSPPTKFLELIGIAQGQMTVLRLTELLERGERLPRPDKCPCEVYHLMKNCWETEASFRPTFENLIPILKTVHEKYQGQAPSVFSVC
Method: The effect of the compounds of the present invention on the enzymatic activity of TYK2 was assessed by detecting the substrate phosphorylation level in a kinase reaction using the HTRF kinase assay detection kit (Cisbio, Cat. No. 62TK0PEC).
as §1
A reaction buffer contained the following components: an enzyme reaction buffer (1×), 5 mM MgCl2 mM DTT and 0.01% Brij35 from the kit. A TYK2 kinase solution contained human recombinant TYK2 protein (Carna Biosciences, 08-147) diluted in the reaction buffer to 0.25 ng/μL. A substrate reaction solution contained 11.25 μM ATP and 0.5 μM of a biotinylated tyrosine kinase substrate from the kit in the reaction buffer. A detection solution contained 0.1 ng/μL Eu^3+-labeled cage antibody (Cisbio, 61T66KLB) and 25 nM streptavidin-1 added XL665 (Cisbio, 610SAXLB) in the reaction buffer.
as §2
To a 384-well assay plate (Corning, 3674) were added 4 μL of compound solution and 2 μL of TYK2 kinase solution. The mixture was mixed and incubated at room temperature for 15 minutes, and then added with 4 μL of the substrate reaction solution. After further incubation at room temperature for 40 minutes, the reaction mixture was added with an equal volume of 10 μL detection solution and allowed to stand at room temperature for 30 minutes. An Envision plate reader (Perkin Elmer) was then used to measure the progress of the reaction at 620 nm and 665 nm. The ratio of absorbances at 665 nm and 620 nm was positively correlated with the degree of substrate phosphorylation, therefore the activity of TYK2 kinase was detected. In the experiment, the group without TYK2 kinase protein was treated as the 100% inhibition group, and the group with TYK2 kinase protein but not the test compound was treated as the 0% inhibition group. The percentage of inhibition on TYK2 kinase activity by the test, compound was calculated using the following formula: Percentage of inhibition=100−100*(ratiocompound−ratio100% inhibition)/(ratio0% inhibition−ratio100% inhibition)
The IC50 value of the test compound was calculated from 8 concentration points using the XLfit software (ID Business Solutions Ltd., UK) by the following formula: Y=Bottom+(Top−Bottom)/(1+10^((log IC50−X)slope factor))
Where Y was the percentage of inhibition, X was the logarithm of the concentration of the test compound, Bottom was the bottom plateau value of the S-shaped curve, Top was the top plateau value of the S-shaped curve, and slope factor was the slope coefficient of the curve.

T1 sequence (O60674 826-1132 limits assumed): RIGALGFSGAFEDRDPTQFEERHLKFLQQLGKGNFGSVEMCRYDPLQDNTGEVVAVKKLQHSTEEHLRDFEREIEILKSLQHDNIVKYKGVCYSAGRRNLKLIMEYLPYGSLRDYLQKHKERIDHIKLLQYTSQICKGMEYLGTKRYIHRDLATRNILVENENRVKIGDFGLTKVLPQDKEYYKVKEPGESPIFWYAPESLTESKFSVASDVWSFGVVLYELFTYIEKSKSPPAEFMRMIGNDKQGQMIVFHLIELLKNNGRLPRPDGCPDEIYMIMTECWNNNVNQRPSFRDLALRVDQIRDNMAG

| Molecule | IC50 [1] | IC50 [2] |
| --- | --- | --- |
| CCNC(=O)c1ccc(Nc2nccc(N3C[C@]4(C)CN(C(=O)C5CC5)C[C@]4(C)C3)n2)cc1 [Compound 3] | 113 nM | 23 nM |
| CCOC(=O)N1C[C@@]2(C)CN(c3ccnc(Nc4cnn(C)c4)n3)C[C@@]2(C)C1 [Compound 6, ethyl (3aR,6aS)-3a,6a-dimethyl-5-(2-((1-methyl-1H-pyrazol-4-yl)amino)pyrimidin-4-yl)hexahydropyrrol[3,4-c]pyrrole-2(1H)-carboxylate] | 113 nM | 127 nM |
| CCNC(=O)c1ccc(Nc2ncc(F)c(N3C[C@H]4CN(C(=O)C5CC5(F)F)C[C@H]4C3)n2)cc1 (stereo partly drawn) [Compound 9] | 38 nM | 13 nM |
| 5-chloro-4-((3aR,6aS)-3a,6a-dimethyl-5-((1-methyl-IH-pyrazol-4-yl)methyl)hexahydropyrrolo[3,4-c]pyrrol-2(1H)-yl)-N-(1-methyl-1H-pyrazol-4-yl)pyrimidin-2-amine [Compound 76] | 475 nM | 149 nM |
| Cn1cc(Nc2nccc(N3C[C@]4(C)CN(C(=O)NCC#N)C[C@]4(C)C3)n2)cn1 [Compound 8, (3aR,6aS)-N-(cyanomethyl)-3a,6a-dimethyl-5-(2-((1-methyl-IH-pyrazol-4-yl)amino)pyrimidin-4-yl)hexahydropyrrolo[3,4-c]pyrrole-2(1H)-carboxamide] | 25 nM | 66 nM |
| Cn1cc(Nc2nccc(N3C[C@]4(C)CN(CCC#N)C[C@]4(C)C3)n2)cn1 [Compound 7, 3-((3aR,6aS)-3a,6a-dimethyl-5-(2-((1-methyl-1H-pyrazol-4-yl)amino)pyrimidin-4-yl)hexahydropyrrolo[3,4-c]pyrrol-2(1H)-yl)propanenitrile] | 138 nM | 186 nM |
| Cn1cc(Nc2ncc(Cl)c(N3C[C@]4(C)CN(C(=O)C5CNC5)C[C@]4(C)C3)n2)cn1 [Compound 38, azetidin-3-yl((3aR,6aS)-5-(5-chloro-2-((1-methyl-1H-pyrazol-4-yl)amino)pyrimidin-4-yl)-3a,6a-dimethylhexahydropyrrolo[3,4-c]pyrrol-2(1H)-yl)methanone] | 50 nM | 43 nM |
| COc1cnc(Nc2cnn(C)c2)nc1N1C[C@]2(C)CN(C(=O)CC#N)C[C@]2(C)C1 [Compound 97, 3-((3aR,6aS)-5-(5-methoxy-2-((1-methyl-1H-pyrazol-4-yl)amino)pyrimidin-4-yl)-3a,6a-dimethylhexahydropyrrolo[3,4-c]pyrrol-2(1H)-yl)-3-oxopropanenitrile] | 8.1 nM | 56 nM |
| Cn1ccc(Nc2ncc(Cl)c(N3C[C@]4(C)CN(C(=O)C5CC5)C[C@]4(C)C3)n2)n1 [Compound 94, ((3aR,6aS)-5-(5-chloro-2-((1-methyl-1H-pyrazol-3-yl)amino)pyrimidin-4-yl)-3a,6a-dimethylhexahydropyrrolo[3,4-c]pyrrol-2(1H)-yl)(cyclopropyl)methanone] | 34 nM | 224 nM |
| Cn1cc(Nc2nccc(N3C[C@]4(C)CN(C(=O)C(F)(F)F)C[C@]4(C)C3)n2)cn1 [Compound 4, 1-((3aR,6aS)-3a,6a-dimethyl-5-(2((1-methyl-1H-pyrazol-4-yl)amino)pyrimidin-4-yl)hexahydropyrrolo[3,4-c]pyrrol-2(1H)-yl)-2,2,2-trifluoroethan-1-one] | 126 nM | 49 nM |
| Cn1cc(Nc2ncc(C#N)c(N3C[C@]4(C)CN(C(=O)C5CC5)C[C@]4(C)C3)n2)cn1 [Compound 15, 4-((3aR,6aS)-5-(cyclopropanecarbonyl)-3a,6a-dimethlhexahydropyrrolo[3,4-c]pyrrol-2(1H)-yl)-2-((1-methyl-1H-pyrazol-4-yl)amino)pyrimidine-5-carbonitrile] | 551 nM | 186 nM |
| Cn1cc(Nc2nccc(N3C[C@]4(C)CN(C(=O)C5CC5(F)F)C[C@]4(C)C3)n2)cn1 (stereo partly drawn) [Compound 5, (2,2-difluorocyclopropyl)((3aR,6aS)-3a,6a-dimethyl-5-(2-((1-methyl-1H-pyrazol-4-yl)amino)pyrimidine-4-yl)hexahydropyrrolo[3,4-c]pyrrole-2(1H)-yl)methanone] | 82 nM | 75 nM |
| Cn1cc(Nc2ncc(Cl)c(N3C[C@]4(C)CN(CCO)C[C@]4(C)C3)n2)cn1 [Compound 49, 2-((3aR,6aS)-5-(5-chloro-2-((1-methyl-1H-pyrazol-4-yl)amino)pyrimidin-4-yl)-3a,6a-dimethylhexahydropyrrolo[3,4-c]pyrrol-2(1H)-yl)ethan-1-ol] | 71 nM | 52 nM |
| C[C@@]12CN(C(=O)C3CC3)C[C@]1(C)CN(c1ccnc(Nc3ccc(C(=O)O)cc3)n1)C2 [Compound 2] | 478 nM | 62 nM |
| Cn1cc(Nc2nccc(N3C[C@]4(C)CN(C(=O)C5CC5)C[C@]4(C)C3)n2)cn1 [Compound 1, cyc1opropyl((3aR,6aS)-3a,6a-dimethyl-5-(2((1-methyl-1H-pyrazol-4-yl)amino)pyrimidin-4-yl)hexahydropyrrolo[3,4-c]pyrrol-2(1H)-yl)methanone] | 319 nM | 125 nM |
| Cn1cc(Nc2ncc(Cl)c(N3C[C@]4(C)CN(Cc5ccn(C)n5)C[C@]4(C)C3)n2)cn1 [Compound 75, 5-chloro-4-((3aR,6aS)-3a,6a-dimethyl-5-((1-methyl-1H-pyrazol-3-yl)methyl)hexahydropyrrolo[3,4-c]pyrrol-2(1H)-yl)-N-(1-methyl-1H-pyrazol-4-yl)pyrimidin-2-amine] | 325 nM | 98 nM |
| Cc1cc(Nc2ncc(Cl)c(N3C[C@]4(C)CN(C(=O)C5CC5)C[C@]4(C)C3)n2)no1 [Compound 93] | 91 nM | 158 nM |
| Cn1cc(Nc2ncc(Cl)c(N3C[C@]4(C)CN(Cc5ncn(C)n5)C[C@]4(C)C3)n2)cn1 [Compound 77, 5-chloro-4-((3aR,6aS)-3a,6a-dimethyl-5-((1-methyl-1H-1,2,4-triazol-3-yl)methyl)hexahydropyrrolo[3,4-c]pyrrol-2(1H)-yl)-N-(1-methyl-1H-pyrazol-4-yl)pyrimidin-2-amine] | 136 nM | 30 nM |
